The target of one test is T1, 5HT1B serotonin receptor (Rattus norvegicus, UniProt P28564).
T1 construct: Cell membrane fractions, prepared from tissue homogenates or cells; from tissue
The test can be described thus: 5HT1B receptor binding, [3H]serotonin displacement. The following applies: read-out: IC50 (inhibition of [3H]-ligand binding) (converted). As to the method:
(§1) Cell membrane fractions, prepared from tissue homogenates or cells, were incubated with a radioactive [^3 H]-labelled substance (described hereinafter as the [^3 H]-ligand) known to bind specifically to a particular receptor, thus labeling this receptor. The [^3 H]-ligand used for each receptor site is mentioned in Table 1, as are the references wherein the experimental conditions of these tests are described.
(§2) After the incubation, the labelled membranes were harvested on glass fibre filters and rinsed twice with 5 ml of a cold buffer solution to remove non-bound [^3 H]-ligands. Subsequently the glass fibre filters, with the harvested membranes, were placed in plastic mini-vials and 2.0 ml of Ultima Gold™ scintillation cocktail was added. Vials were vigorously shaken and kept at 4° C. for 24 h. Thereafter radioactivity was counted in a liquid scintillation spectrometer. Said radioactivity is proportional to the membrane labelling by the [^3 H]-ligand.
(§3) Specific membrane labelling by the [^3 H]-ligand was distinguished from the non-specific membrane labelling by selectively inhibiting the labelling of the receptor site by another substance (unlabelled) known to compete with the [^3 H]-ligand for binding to said receptor site. The remaining non-specific labelling was substracted from all assays concerning said receptor site.
(§4) During the incubation the test compounds were able to compete with the [^3 H]-ligand for binding with the receptor. Subsequently the membranes were harvested and the radioactivity was measured as described above.
(§5) A compound having a high binding affinity is capable of displacing the [^3 H]-ligand from binding to the receptor, and consequently the radioactivity of the harvested membranes will be diminished. […] The values presented in table 1 are IC50 -values, i.e. the molar concentrations at which the test compound was able to inhibit 50% of the [^3 H]-ligand-binding
(§6) In the table "5HT2, 5HT1A, 5HT1B, 5HT1D, 5HT1C, 5HT3 " all refer to different types of serotonin receptor sites; "α2 " refers to the α2 -adrenergic receptor site; "H1 " refers to the histamine-H1 receptor site; and "D2 " refers to the dopamine-D2 -receptor site.

A further test deals with T2, dopamine-D2 receptor (Rattus norvegicus, UniProt P61169).
T2 construct: Cell membrane fractions, prepared from tissue homogenates or cells; from tissue
T2 sequence (P61169 whole entry): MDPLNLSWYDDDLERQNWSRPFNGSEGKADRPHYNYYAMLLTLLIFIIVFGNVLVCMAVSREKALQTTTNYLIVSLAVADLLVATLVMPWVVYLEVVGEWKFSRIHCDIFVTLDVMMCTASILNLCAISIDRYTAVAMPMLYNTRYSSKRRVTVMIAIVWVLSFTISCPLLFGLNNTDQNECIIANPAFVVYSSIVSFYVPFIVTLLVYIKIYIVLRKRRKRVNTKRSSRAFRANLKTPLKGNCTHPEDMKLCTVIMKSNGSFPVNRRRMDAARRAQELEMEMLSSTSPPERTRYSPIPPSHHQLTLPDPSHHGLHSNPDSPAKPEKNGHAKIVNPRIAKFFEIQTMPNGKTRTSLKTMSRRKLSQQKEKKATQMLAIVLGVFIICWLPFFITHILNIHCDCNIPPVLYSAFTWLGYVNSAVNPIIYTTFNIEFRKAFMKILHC
The test can be described thus: dopamine-D2 receptor binding, [3H]haloperidol displacement. The following applies: read-out: IC50 (inhibition of [3H]-ligand binding) (converted). As to the method:
as §1, §2, §3, §4, §5, §6

The target of another test is T3, 5HT2 serotonin receptor (Rattus norvegicus, UniProt P14842).
T3 construct: Cell membrane fractions, prepared from tissue homogenates or cells; from tissue
T3 sequence (P14842 whole entry): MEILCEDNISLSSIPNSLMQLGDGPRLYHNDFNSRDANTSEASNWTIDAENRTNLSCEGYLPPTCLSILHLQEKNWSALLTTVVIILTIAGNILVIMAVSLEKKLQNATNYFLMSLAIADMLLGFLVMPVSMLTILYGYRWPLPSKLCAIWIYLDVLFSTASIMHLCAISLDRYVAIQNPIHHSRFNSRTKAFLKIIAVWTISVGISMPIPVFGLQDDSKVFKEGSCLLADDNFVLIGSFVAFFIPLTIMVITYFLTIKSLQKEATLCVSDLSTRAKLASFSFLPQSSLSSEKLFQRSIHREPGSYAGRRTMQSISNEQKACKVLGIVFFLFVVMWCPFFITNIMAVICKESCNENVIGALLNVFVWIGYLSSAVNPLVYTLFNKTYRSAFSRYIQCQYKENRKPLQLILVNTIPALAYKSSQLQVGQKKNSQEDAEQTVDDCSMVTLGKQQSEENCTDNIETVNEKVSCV
The test can be described thus: 5HT2 receptor binding, [3H]ketanserin displacement. The note with it: read-out: IC50 (inhibition of [3H]-ligand binding) (converted). As to the method: as §1, §2, §3, §4, §5, §6

In another test the target is T4, 5HT3 serotonin receptor (Mus musculus, UniProt P23979).
T4 construct: Cell membrane fractions, prepared from tissue homogenates or cells; endogenous in cells
T4 sequence (P23979 24-489): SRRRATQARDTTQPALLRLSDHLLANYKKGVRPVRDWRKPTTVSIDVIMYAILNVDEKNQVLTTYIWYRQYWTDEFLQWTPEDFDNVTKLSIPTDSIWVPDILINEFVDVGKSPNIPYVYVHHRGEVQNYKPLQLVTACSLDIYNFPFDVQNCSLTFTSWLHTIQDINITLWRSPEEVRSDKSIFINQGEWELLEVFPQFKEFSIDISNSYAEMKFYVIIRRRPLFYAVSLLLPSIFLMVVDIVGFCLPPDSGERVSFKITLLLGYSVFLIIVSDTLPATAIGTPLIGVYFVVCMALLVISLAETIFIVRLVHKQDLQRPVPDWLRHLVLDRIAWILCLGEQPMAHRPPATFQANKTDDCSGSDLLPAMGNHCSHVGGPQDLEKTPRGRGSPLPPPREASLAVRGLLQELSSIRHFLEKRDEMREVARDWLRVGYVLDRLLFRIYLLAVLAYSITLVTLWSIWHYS
The test can be described thus: 5HT3 receptor binding, [3H]GR65630 displacement. The note with it: read-out: IC50 (inhibition of [3H]-ligand binding) (converted). As to the method:
as §1, §2, §3, §4, §5, §6
(f) Hoyer & Neijt, Eur. J. Pharmacol., 143, 191, 1987;

A further test addresses T5, 5HT1A serotonin receptor (Homo sapiens, UniProt P08908).
T5 construct: expressed in transfected cells
T5 sequence (P08908 1-422): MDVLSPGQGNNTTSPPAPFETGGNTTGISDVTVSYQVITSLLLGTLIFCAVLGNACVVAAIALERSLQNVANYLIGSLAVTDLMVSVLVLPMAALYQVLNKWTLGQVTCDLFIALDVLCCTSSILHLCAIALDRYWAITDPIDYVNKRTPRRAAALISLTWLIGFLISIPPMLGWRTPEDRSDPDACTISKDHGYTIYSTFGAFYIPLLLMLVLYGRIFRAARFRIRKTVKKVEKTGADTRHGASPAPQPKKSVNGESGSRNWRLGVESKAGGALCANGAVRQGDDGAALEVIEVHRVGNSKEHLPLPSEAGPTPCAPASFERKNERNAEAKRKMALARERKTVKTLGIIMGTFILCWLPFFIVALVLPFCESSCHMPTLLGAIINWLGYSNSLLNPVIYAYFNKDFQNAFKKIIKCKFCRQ
The test can be described thus: 5HT1A receptor binding, [3H]8OHDPAT displacement. The note with it: read-out: IC50 (inhibition of [3H]-ligand binding) (converted). The protocol: as §1, §2, §3, §4, §5, §6

The target in a further test is T6, histamine-H1 receptor (Cavia porcellus, UniProt P31389).
T6 construct: Cell membrane fractions, prepared from tissue homogenates or cells; from tissue
T6 sequence (P31389 whole entry): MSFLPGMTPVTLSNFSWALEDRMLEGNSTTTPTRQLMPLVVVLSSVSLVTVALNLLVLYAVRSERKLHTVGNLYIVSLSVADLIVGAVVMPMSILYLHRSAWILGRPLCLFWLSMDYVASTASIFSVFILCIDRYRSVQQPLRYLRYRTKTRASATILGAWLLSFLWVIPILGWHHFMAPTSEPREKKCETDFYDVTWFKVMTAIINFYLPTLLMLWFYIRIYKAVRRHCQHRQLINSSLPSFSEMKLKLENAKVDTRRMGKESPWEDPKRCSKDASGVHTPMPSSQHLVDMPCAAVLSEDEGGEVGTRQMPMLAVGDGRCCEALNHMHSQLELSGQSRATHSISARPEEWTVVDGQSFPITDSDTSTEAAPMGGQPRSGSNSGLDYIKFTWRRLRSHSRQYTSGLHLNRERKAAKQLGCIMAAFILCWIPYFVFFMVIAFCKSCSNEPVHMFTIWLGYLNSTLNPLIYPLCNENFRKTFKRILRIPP
The test can be described thus: histamine-H1 receptor binding, [3H]pyrilamine displacement. The note with it: read-out: IC50 (inhibition of [3H]-ligand binding) (converted). The protocol: as §1, §2, §3, §4, §5, §6
(h) Chang et al., Eur. J. Pharmacol., 48, 463-464, 1978; Laduron et al.,

Test [1] has as its system serotonin-induced contraction of caudal artery of the rat. The test can be described thus: Antagonistic activity on the effect of serotonin on the caudal artery of the rat. The following applies: 5 min; rat caudal artery strips; serotonin 40 ng/ml; 5 minutes after adding the drug; read-out: ED50 (minimal concentration which reduces the amplitude of the contractions by at least 50% of its normal value). The class given is cell-based. As to the method: Antagonistic activity on the effect of serotonin on the caudal artery of the rat.
Caudal arteries from the fasted male rats (210-235 g) were used in the test. Two helical strips having a length of 5-6 cm and a width of 2 mm were obtained from each artery and mounted vertically in a 100 ml organ bath containing an oxygenated Krebs-Henseleit solution. Submaximal contractions of the arterial strips were produced by adding single doses of serotonin (40 ng/ml) to the organ bath for 2 minutes with each time an interval of 10 minutes. The amplitude of the contractions was measured before and 5 minutes after adding the drug. After washing out, the agonist was added again three times in order to see whether the contraction was restored and normalized. […] The ED50 -values are the minimal concentrations of the concerned drugs which reduce the amplitude of the contractions by at least 50% of its normal value.

Where only a bound is given, the exact number is not on record here.

T1 sequence (P28564 whole entry): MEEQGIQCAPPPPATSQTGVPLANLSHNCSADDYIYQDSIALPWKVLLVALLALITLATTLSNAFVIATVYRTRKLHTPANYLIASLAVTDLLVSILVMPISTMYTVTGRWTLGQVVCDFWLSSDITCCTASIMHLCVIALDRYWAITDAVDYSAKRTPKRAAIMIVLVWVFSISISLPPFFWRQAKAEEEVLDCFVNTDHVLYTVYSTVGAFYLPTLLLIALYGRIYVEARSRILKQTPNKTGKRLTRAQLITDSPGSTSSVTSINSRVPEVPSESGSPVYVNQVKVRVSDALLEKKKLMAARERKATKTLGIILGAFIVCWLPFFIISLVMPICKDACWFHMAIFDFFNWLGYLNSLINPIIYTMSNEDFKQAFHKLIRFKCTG

For `COc1cc(N=[N+]=[N-])c(Br)cc1C(=O)NC1(C)CCN(CCCOc2ccc(F)cc2)CC1` [Compound 8, 4-azido-5-bromo-N-[1-[3-(4-fluorophenoxy)propyl]-4-methyl-4-piperidinyl]-2-methoxybenzamide], the IC50 on 5HT1B serotonin receptor is 3.31 µM; on dopamine-D2 receptor it was 0.0631 µM; at 5HT2 serotonin receptor, 0.00355 µM; at 5HT3 serotonin receptor, 8.32 µM; on 5HT1A serotonin receptor it was 0.219 µM; at histamine-H1 receptor, 8.51 µM.
In the case of `COc1cc(N)c(Br)cc1C(=O)NC1(C)CCN(CCCOc2ccc(F)cc2)CC1` [Compound 3, 4-amino-5-bromo-N-[1-[3-(4-fluorophenoxy)propyl]-4-methyl-4-piperidinyl]-2-methoxybenzamide], the IC50 on 5HT1B serotonin receptor was 6.61 µM; on dopamine-D2 receptor, 0.0479 µM; at 5HT2 serotonin receptor, 0.000661 µM; at 5HT3 serotonin receptor, 1.44 µM; on 5HT1A serotonin receptor, 0.407 µM; on histamine-H1 receptor it was 10 µM.
On to `COc1cc(N)c(Cl)cc1C(=O)NC1(C)CCN(CCCOc2ccc(F)cc2Br)CC1` [Compound 4, 4-amino-N-[1-[3-(2-bromo-4-fluorophenoxy)propyl]-4-methyl-4-piperidinyl]-5-chloro-2-methoxybenzamide], for which the IC50 at 5HT1B serotonin receptor is 10 µM; at dopamine-D2 receptor it was 0.0229 µM; on 5HT2 serotonin receptor it was 0.000631 µM; at 5HT3 serotonin receptor it was 0.191 µM; at 5HT1A serotonin receptor it was 0.417 µM; in test [1] it was 0.00012 µM. Moreover, the IC50 on histamine-H1 receptor was 2.88 µM.
For the compound `COc1cc(N=[N+]=[N-])c(I)cc1C(=O)NC1(C)CCN(CCCOc2ccc(F)cc2)CC1` [Compound 7, 4-azido-N-[1-[3-(4-fluorophenoxy)propyl]-4-methyl-4-piperidinyl]-5-iodo-2-methoxybenzamude hemihydrate], the IC50 on 5HT1B serotonin receptor is 3.24 µM; at dopamine-D2 receptor, 0.0661 µM; on 5HT2 serotonin receptor it was 0.00741 µM; on 5HT3 serotonin receptor, 10 µM; on 5HT1A serotonin receptor, 0.0891 µM; on histamine-H1 receptor, 7.94 µM.
Regarding `COc1cc(N)c(Cl)cc1C(=O)NC1(C)CCN(CCCOc2ccc(F)cc2)CC1` [Compound 2, 4-amino-5-chloro-N-[1-[3-(4-fluorophenoxy)propyl]-4-methyl-4-piperidinyl]-2-methoxybenzamide], the IC50 was 6.61 µM at 5HT1B serotonin receptor; 0.0295 µM at dopamine-D2 receptor; 0.000251 µM at 5HT2 serotonin receptor; 1.7 µM on 5HT3 serotonin receptor; 0.661 µM at 5HT1A serotonin receptor; 0.00015 µM in test [1]. In addition, the IC50 on histamine-H1 receptor is 4.57 µM.
`COc1cc(N)c(I)cc1C(=O)NC1(C)CCN(CCCOc2ccc(F)cc2)CC1` [Compound 1, 4-amino-N-[1-[3-(4-fluorophenoxy)propyl]-4-methyl-4-piperidinyl]-5-iodo-2-methoxybenzamide]: the IC50 is 8.91 µM on 5HT1B serotonin receptor; 0.0275 µM on dopamine-D2 receptor; 0.000603 µM on 5HT2 serotonin receptor; 4.17 µM at 5HT3 serotonin receptor; 0.457 µM on 5HT1A serotonin receptor; 0.00027 µM in test [1]. Also, the IC50 on histamine-H1 receptor is 6.46 µM.
`COc1cc(N)ccc1C(=O)NC1(C)CCN(CCCOc2ccc(F)cc2)CC1` [Compound 5, 4-amino-N-[1-[3-(4-fluorophenoxy)propyl]-4-methyl-4-piperidinyl]-2-methoxybenzamide]: the IC50 on 5HT1B serotonin receptor was above 10 µM; on dopamine-D2 receptor, 0.0851 µM; at 5HT2 serotonin receptor, 0.000178 µM; on 5HT3 serotonin receptor, above 10 µM; on 5HT1A serotonin receptor, 2.24 µM; in test [1], 0.000213 µM. Besides, the IC50 on histamine-H1 receptor is 3.72 µM.

Source of the values: patent US5498618A, “4-amino-N-(4-methyl-4-piperidinyl)-2-methoxybenzamides for treating smooth muscle contraction disorders” (Janssen Pharmaceutica N.V., priority 1993, dated 1996).
